Results as given in patent US20070191476A1, “Antioxidant Components for Reduction of Nucleic Acid Damage in Companion Animals” (Mars, Incorporated, priority 2001, published 2007).

Experiments:
canine leukocytes = test system: canine leukocytes
Description: (§1) All cats and dogs were housed at the Waltham Centre for Pet Nutrition, in conditions resembling those of pet cats and dogs, and were fed commercially available, complete diets throughout the study period. Fasted blood samples (5 ml) were drawn from the jugular vein of 12 healthy adult cats (7.2±4.8 years) and 12 healthy adult dogs (4.5±2.3 years) into lithium herparin vials and diluted 1:1 in PBS. Leukocytes were isolated over Histopaque 1083 gradients (Sigma, UK) by centrifugation at 1000 g for 40 minutes. Leukocytes were washed twice in 10 mls PBS and centrifuged at 700 g for 10 minutes before counting and storing at 1×10^6 cells/ml in 90% fetal calf serum (Sigma) and 10% dimethyl sulphoxide (Sigma) at −80° C. until required.
(§2) DNA damage was induced in vitro by exposing the leukocytes to a range of H2O2 concentrations (0-250 μM diluted in PBSa) to determine the optimal level of H2O2 required to induce a significant increase in DNA damage above background endogenous DNA damage levels. Leukocytes were thawed rapidly in a 37° C. water bath, washed twice in PBSa, centrifuged at 700 g for 15 minutes and resuspended in PBSa at […]. Cells were re-suspended in 0 μM, 10 μM, 50 μM, 100 μM and 250 μM H2O2 in PBSa and incubated on ice for 5 minutes. Treated leukocytes were centrifuged at 700 g for 15 minutes at 4° C. ready for slide preparation.
(§3) Two layers of agarose were prepared. For the first layer, 85 μl 1% (w/v) high-melting point (HMP) agarose (Sigma) prepared at 95° C. in PBSa was pipetted onto fully frosted microscope slides, covered with an 18×18 mm coverslip and allowed to set at 4° C. for 10 minutes. Untreated and hydrogen peroxide-treated leukocytes were washed twice in PBS, centrifuged at 700 g for 15 minutes and resuspended at 2×10^5 in 85 μl 1% (w/v) low melting point (LMP) agarose (Sigma). The cell suspension was then pipetted over the set HMP agarose layer, covered with an 18×18 mm coverslip and allowed to set at 4° C. for 10 minutes. After the coverslips were removed, the slides were immersed in freshly prepared cold lysis solution.

feline leukocytes = test system: feline leukocytes
Description: as §1, §2, §3

[1] = 10-250 μM H2O2, 5 minutes, p<0.001

OO [H2O2, hydrogen peroxide]
DNA damage in relation to all other concentrations of H2O2 (canine leukocytes; 250 μM H2O2, FIG. 2): significant increases in DNA damage
DNA damage (visual comet score) versus untreated samples (canine leukocytes; [1]): Statistically significant increases in DNA damage
DNA damage in relation to all other concentrations of H2O2 (feline leukocytes; 250 μM H2O2, FIG. 1): significant increases in DNA damage
DNA damage (visual comet score) versus untreated samples (feline leukocytes; [1]): Statistically significant increases in DNA damage
